Laboratory results: ChEMBL document CHEMBL1201862, “PubChem BioAssay data set” (2004)
Active and inactive are the calls of the source. Rule as the data show it, for most assays here: actives have a measured EC50 and inactives only a lower limit.

Legend:
[1] = target: ATP-dependent molecular chaperone HSP82 (Candida albicans (strain WO-1) (Yeast), UniProt C4YTQ8); assay: loss of DOC-induced GRE-beta-galactosidase reporter signal, dose response, Hsp90 inhibitor project, S. cerevisiae, luminescence (AID 2400); format: functional, cell-based;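 also: beta-galactosidase luminescence from glucocorticoid response element reporter as proxy for Hsp90 function; inhibitor potency where signal loss means Hsp90 inhibition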
ATP-dependent molecular chaperone HSP82, sequence (C4YTQ8 whole entry): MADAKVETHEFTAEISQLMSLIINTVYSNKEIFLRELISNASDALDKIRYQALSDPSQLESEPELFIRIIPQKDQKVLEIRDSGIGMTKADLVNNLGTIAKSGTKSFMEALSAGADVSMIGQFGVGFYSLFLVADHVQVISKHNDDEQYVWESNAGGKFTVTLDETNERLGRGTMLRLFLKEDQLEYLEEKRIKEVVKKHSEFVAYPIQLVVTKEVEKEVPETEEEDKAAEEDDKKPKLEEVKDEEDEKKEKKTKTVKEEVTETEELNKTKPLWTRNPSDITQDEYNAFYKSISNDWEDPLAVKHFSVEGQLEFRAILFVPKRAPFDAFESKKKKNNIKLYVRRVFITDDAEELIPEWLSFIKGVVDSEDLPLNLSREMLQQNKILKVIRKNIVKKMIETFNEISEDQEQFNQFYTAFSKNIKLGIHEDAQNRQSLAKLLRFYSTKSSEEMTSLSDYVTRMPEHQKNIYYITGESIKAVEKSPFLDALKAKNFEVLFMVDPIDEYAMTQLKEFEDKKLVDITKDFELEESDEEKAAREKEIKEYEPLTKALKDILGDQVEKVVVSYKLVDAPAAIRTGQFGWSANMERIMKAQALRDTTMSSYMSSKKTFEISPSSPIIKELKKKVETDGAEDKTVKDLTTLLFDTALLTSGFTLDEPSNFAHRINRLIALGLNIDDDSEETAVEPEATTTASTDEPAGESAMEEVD

Protein RecA = target: T1, Protein RecA (Mycobacterium tuberculosis, UniProt P9WHJ3); assay: Fluorescence Cell-Free Homogeneous Dose Retest to Identify Inhibitors of RecA-Intein Splicing Activity. [Related pubchem assays (depositor defined):AID2097, AID2223, AID489010, AID492950]; format: functional
T1 sequence (P9WHJ3 whole entry): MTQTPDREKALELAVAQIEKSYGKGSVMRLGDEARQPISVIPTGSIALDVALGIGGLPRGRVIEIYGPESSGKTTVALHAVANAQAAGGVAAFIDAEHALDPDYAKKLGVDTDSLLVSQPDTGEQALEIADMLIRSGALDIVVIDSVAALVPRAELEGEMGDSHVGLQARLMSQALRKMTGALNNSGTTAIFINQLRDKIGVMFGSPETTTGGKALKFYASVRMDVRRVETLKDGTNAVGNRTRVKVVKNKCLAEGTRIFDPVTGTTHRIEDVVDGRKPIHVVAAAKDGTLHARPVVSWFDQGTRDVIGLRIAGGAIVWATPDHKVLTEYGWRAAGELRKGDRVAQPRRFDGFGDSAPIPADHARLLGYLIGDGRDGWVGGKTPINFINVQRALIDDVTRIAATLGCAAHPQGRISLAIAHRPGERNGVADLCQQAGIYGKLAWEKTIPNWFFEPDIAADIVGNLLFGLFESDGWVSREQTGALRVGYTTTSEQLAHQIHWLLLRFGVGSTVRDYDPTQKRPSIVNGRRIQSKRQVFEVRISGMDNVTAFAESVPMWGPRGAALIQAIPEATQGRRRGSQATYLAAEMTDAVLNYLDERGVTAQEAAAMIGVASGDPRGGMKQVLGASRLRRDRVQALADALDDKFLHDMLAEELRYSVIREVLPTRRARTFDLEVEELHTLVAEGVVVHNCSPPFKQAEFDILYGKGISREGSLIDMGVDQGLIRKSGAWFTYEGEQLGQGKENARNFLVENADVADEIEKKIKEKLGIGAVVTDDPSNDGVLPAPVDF

[2] = NIH-3T3 fibroblast cytotoxicity, dose response, cytotoxicity control, cell-based, fluorescence, Alamar Blue, secondary assay (AID 2327); format: functional;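 also: NIH-3T3 mouse fibroblasts cultured with fluconazole at 8 µg/mL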
Nonstructural protein 1 = Nonstructural protein 1 (Influenza A virus, UniProt Q194T2); format: functional, Influenza A virus (A/California/07/2009(H1N1))
Nonstructural protein 1, sequence (Q194T2 whole entry): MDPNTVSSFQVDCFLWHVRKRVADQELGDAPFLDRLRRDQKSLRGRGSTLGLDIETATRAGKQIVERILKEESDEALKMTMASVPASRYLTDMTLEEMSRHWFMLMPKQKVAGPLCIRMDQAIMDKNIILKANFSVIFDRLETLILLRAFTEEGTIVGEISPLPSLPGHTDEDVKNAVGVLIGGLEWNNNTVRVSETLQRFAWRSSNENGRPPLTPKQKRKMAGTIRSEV

[3] = growth suppression of beta-catenin-knockout colon cells, dose response, cell-based, HCT116, human colon tumor (AID 1045); format: functional;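 also: HCT116 colon tumor cells with beta catenin knocked out; cells exposed to compound for 60 hours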
[4] = growth suppression of PTEN-null colon cells, dose response, cell-based, HCT116 PTEN knockout (AID 1047); format: functional;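 also: HCT116 colon tumor cells with PTEN knocked out; cells exposed to compound for 60 hours before readout; potency for loss of cell viability measured by luminescence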
[5] = target: T2, Replicative DNA helicase DnaB (Mycobacterium tuberculosis, UniProt P9WMR3); assay: DnaB intein splicing inhibitors, dose response, biochemical, cell-free fluorescence (AID 449749); format: functional
T2 sequence (P9WMR3 whole entry): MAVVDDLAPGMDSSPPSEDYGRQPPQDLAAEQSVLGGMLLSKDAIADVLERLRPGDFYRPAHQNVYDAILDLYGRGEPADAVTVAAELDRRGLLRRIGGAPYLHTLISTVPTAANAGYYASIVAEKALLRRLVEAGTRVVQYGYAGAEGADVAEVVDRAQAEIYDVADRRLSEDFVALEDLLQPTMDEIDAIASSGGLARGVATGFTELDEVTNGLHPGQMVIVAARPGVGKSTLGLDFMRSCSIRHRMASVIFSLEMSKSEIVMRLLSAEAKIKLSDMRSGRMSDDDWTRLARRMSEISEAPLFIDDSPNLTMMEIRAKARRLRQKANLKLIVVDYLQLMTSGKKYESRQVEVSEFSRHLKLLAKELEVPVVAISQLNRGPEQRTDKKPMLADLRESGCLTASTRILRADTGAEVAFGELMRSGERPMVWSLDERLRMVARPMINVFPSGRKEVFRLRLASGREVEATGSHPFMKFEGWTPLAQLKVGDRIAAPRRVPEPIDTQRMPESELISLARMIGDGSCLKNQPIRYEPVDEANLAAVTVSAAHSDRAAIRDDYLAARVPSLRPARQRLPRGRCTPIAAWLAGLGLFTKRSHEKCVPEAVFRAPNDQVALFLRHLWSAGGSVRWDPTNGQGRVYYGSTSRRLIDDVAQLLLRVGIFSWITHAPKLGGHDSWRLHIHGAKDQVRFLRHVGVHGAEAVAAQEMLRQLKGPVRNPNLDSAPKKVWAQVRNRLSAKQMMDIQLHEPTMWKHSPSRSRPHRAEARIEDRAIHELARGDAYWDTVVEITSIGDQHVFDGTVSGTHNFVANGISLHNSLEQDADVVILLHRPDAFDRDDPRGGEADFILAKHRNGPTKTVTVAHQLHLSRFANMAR

[6] = inhibitors of intracellular T. cruzi replication, confirmation, NIH3T3 host cells, beta-gal luminescence (AID 2044); format: functional, cell-based;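 also: intracellular parasites grown in NIH/3T3 mouse fibroblasts as host cells; luminescent beta-galactosidase reporter signal from transgenic T. cruzi replicating inside host cells; inhibitors lower the luminescence signal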
Estrogen receptor beta = Estrogen receptor beta (Homo sapiens, UniProt Q92731); assay: ERβ–SRC-3 coactivator interaction inhibitors, confirmation, orthogonal assay, biochemical, ELISA, streptavidin-HRP readout (AID 1060)
Estrogen receptor beta, sequence (Q92731 whole entry): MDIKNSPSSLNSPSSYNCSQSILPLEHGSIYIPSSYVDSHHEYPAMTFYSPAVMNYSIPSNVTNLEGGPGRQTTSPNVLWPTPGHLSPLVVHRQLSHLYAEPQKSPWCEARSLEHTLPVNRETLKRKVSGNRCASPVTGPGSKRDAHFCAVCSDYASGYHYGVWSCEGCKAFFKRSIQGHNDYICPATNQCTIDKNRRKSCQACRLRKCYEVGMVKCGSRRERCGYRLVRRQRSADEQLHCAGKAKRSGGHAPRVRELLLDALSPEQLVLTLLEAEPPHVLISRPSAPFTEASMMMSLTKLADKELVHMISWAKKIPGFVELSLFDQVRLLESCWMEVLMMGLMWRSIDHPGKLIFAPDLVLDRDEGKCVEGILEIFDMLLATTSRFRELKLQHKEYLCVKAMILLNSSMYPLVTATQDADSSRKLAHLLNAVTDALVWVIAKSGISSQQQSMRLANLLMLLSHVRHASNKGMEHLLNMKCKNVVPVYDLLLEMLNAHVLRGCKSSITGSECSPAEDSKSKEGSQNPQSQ

[7] = target: Serine/threonine-protein phosphatase (Candida dubliniensis (strain CD36 / CBS 7987 / NCPF 3949 / NRRLY-17841) (Yeast), UniProt B9W6M3); assay: calcineurin pathway inhibitors in yeast reporter, dose response, S. cerevisiae, CDRE-lacZ, luminescence, secondary (AID 2388); format: functional, cell-based;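 also: yeast reporter cells carrying a calcineurin-responsive lacZ construct stimulated with calcium chloride; luminescent beta-galactosidase reporter signal in whole cells rather than isolated phosphatase activity; potency for inhibition where a drop in reporter signal means calcineurin blockade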
Serine/threonine-protein phosphatase, sequence (B9W6M3 whole entry): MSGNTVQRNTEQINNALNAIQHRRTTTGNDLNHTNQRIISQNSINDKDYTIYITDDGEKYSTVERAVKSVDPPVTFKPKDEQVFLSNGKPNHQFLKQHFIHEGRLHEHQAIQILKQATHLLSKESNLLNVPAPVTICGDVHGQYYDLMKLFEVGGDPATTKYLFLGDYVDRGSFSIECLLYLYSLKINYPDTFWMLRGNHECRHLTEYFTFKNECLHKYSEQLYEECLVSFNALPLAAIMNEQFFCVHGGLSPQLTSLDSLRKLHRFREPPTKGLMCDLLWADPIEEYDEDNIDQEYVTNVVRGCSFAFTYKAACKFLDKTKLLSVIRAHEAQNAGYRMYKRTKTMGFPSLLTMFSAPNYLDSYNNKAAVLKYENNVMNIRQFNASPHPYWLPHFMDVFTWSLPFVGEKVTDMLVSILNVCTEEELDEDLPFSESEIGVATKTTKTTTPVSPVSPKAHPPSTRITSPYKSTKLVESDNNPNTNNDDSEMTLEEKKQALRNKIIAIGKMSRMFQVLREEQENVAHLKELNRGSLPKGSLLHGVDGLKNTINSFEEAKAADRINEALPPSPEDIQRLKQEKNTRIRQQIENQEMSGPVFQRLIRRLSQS

[8] = target: T3, Heat shock factor protein 1 (Mus musculus, UniProt P38532); assay: inhibition of MG132-induced HSE-luciferase signal, confirmation, cell-based, NIH3T3, luminescence, dose retest (AID 2382); format: functional;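 also: NIH3T3 fibroblasts with HSF1-driven luciferase reporter stressed by proteasome inhibitor MG132; luminescence from HSF1-driven luciferase expression after 8 hours of MG132 stress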
T3 sequence (P38532 whole entry): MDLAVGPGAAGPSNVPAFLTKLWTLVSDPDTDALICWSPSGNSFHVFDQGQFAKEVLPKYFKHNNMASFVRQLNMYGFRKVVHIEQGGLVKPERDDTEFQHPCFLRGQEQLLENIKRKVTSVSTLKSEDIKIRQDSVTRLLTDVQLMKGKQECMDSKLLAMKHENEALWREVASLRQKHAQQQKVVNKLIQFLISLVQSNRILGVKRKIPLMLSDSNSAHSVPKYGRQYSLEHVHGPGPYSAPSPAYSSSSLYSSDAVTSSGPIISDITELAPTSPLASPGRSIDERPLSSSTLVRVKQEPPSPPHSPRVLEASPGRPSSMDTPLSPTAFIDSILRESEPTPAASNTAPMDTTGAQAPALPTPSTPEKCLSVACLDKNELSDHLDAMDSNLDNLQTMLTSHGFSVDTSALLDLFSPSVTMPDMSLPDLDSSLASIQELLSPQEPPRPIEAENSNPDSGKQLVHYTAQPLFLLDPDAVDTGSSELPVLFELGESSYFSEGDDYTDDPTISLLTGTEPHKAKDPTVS

[9] = cytotoxicity toward NIH3T3 fibroblasts, dose response, counter-screen, cell-based, ATP luminescence, mouse fibroblasts (AID 2010); format: functional;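 also: cells exposed to compound for about 90 hours before reading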
[10] = C. albicans growth with fluconazole, confirmation, fluorescence, retest (AID 2467); format: functional, cell-based
Hexokinase-1 = target: T4, Hexokinase-1 (Homo sapiens, UniProt P19367); assay: SAR analysis of small molecule inhibitors of hexokinase domain containing I (HKDC1) in the hexokinase 1 selectivity assay. [Related pubchem assays (depositor defined):AID493160, AID493190]; format: functional
T4 sequence (P19367 whole entry): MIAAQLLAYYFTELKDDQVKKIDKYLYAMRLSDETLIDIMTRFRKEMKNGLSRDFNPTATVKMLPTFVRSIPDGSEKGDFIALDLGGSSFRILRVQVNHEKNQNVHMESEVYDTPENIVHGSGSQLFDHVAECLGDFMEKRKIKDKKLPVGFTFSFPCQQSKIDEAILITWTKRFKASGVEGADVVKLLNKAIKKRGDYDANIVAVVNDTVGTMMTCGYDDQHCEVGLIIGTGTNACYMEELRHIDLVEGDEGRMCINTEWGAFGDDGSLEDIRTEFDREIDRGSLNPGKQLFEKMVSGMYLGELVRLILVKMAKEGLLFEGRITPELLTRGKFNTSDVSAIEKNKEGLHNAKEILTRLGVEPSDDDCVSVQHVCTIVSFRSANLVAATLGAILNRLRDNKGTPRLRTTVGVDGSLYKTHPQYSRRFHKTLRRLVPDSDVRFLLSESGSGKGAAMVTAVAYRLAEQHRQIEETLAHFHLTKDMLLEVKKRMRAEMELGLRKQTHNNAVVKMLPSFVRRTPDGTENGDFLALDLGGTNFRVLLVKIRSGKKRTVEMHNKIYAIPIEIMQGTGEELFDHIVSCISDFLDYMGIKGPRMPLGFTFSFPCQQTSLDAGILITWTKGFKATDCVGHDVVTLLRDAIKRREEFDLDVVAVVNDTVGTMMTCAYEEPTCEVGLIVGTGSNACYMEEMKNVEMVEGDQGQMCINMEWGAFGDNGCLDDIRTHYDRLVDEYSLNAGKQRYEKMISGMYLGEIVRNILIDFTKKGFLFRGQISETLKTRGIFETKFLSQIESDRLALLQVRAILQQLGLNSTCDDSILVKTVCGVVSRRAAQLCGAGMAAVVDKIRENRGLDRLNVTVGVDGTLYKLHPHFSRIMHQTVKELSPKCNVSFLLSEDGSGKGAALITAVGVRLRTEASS

Hexokinase HKDC1 = target: T5, Hexokinase HKDC1 (Homo sapiens, UniProt Q2TB90); assay: SAR analysis of small molecule inhibitors of hexokinase domain containing I (HKDC1). [Related pubchem assays (depositor defined):AID493160, AID493190]; format: functional
T5 sequence (Q2TB90 whole entry): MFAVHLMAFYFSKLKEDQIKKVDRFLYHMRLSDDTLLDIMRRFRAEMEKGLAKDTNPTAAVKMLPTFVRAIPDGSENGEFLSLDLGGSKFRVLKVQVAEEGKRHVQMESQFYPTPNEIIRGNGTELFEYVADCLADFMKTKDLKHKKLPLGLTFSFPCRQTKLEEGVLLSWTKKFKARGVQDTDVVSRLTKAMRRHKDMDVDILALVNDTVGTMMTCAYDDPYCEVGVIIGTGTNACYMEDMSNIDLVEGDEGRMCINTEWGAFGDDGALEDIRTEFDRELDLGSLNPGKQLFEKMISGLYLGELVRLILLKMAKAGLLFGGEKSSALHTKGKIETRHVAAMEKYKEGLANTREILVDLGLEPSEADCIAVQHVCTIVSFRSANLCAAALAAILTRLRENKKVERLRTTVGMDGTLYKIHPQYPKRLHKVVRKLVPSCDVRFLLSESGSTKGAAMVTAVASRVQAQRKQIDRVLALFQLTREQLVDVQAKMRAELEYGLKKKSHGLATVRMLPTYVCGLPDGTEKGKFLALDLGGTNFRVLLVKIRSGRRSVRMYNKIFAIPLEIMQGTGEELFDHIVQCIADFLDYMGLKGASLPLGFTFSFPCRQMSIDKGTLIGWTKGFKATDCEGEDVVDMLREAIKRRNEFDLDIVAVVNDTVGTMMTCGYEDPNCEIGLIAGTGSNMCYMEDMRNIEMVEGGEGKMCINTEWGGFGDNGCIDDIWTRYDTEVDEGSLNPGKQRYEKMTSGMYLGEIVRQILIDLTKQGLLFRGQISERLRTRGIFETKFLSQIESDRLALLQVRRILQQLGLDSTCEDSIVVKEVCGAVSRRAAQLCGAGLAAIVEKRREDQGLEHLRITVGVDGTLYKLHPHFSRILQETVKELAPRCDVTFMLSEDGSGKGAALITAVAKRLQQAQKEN

CCN1CCN(C(c2cccnc2)c2cc(Cl)c3cccnc3c2O)CC1 (centres undefined)
EC50 [1]: > 150 µM (inactive) | EC50 (Protein RecA): 1.8 µM (active) | EC50 [2]: > 150 µM (inactive) | IC50 (Nonstructural protein 1): 17.8 µM (active) | EC50 [3]: 15.1 µM (active) | EC50 [4]: 12.7 µM (active) | AC50 [5]: > 380 µM (inactive) | EC50 [6]: 2.13 µM (active) | IC50 (Estrogen receptor beta): 2.39 µM (not active) | EC50 [7]: > 180 µM (inactive) | EC50 [8]: > 195 µM (not active) | EC50 [9]: > 60 µM (not active) | EC50 [10]: 0.916 µM (active)

COc1cccc(/C=C/c2nc3ccccc3c(=O)n2Cc2ccccc2)c1
IC50 (Hexokinase-1): > 80 µM (inactive) | IC50 (Hexokinase HKDC1): > 80 µM (inactive)

COc1cc2c(cc1OC)-c1cc(N3CCc4ccccc4C3)nc(=O)n1CC2
IC50 (Hexokinase-1): 69 µM (inactive) | IC50 (Hexokinase HKDC1): 65.7 µM (inactive)

CCn1c(Sc2nc(C)nc3scc(-c4cccs4)c23)n[nH]c1=O
EC50 [1]: 30.7 µM (active) | EC50 [7]: > 180 µM (inactive)
